Reference: patent publication US10745382B2 (BRISTOL-MYERS SQUIBB COMPANY, priority 2015, dated 2020)
Where two headings read alike, the source gives them in different places.

Biological target: T1, PD-1/PD-L1 (Homo sapiens, UniProt Q9NZQ7)
T1 construct: made in house; host or cells: HEK293T
Test: PD-1/PD-L1 Homogenous Time-Resolved Fluorescence (HTRF) binding assay
Conditions: PD-L1-His 10 nM, PD-1-Ig 20 nM, read-out: Range or IC50
Summary of the method: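 Additional pairs run were PD-1-Ig with PD-L2-His (20 & 5 nM) and CD80-His with PD-L1-Ig (100 & 10 nM), all human proteins. Buffer: dPBS plus 0.1% BSA, 0.05% Tween-20; time-resolved FRET read-out via 1 nM Eu-cryptate anti-Ig and 20 nM APC anti-His, final concentrations.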

T1 sequence (Q9NZQ7 with tags, fused parts or gaps): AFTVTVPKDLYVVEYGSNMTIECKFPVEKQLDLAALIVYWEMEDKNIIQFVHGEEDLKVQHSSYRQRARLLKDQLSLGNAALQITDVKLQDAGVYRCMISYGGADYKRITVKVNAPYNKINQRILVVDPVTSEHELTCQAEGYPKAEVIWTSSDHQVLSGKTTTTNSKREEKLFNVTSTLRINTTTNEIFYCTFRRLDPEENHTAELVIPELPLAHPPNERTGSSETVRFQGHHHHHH

Row | IC50 (value given as range class) [nM] | IC50 (numeric IC50) [nM] | Compound
1 | 0.21 to 10 | – | Cc1c(COc2cc(OCc3cncc(C#N)c3)c(CN3CCCC[C@H]3C(=O)O)cc2Cl)cccc1-c1cccc(OCCCN2CCCCC2C)c1C (stereo partly drawn) [Example 2245, (2S)-1-(5-chloro-2-((5-cyanopyridin-3-yl)methoxy)-4-((2,2′-dimethyl-3′-(3-(2-methylpiperidin-1-yl)propoxy)biphenyl-3-yl)methoxy)benzyl)piperidine-2-carboxylic Acid]
2 | 10 to 100 | – | Cc1c(COc2cc(OCc3cncc(C#N)c3)c(CN3CCCC[C@H]3C(=O)O)cc2Cl)cccc1-c1cccc(OC/C=C/CN2CC[C@@H](O)C2)c1 [Example 1087, (S)-1-(5-chloro-2-((5-cyanopyridin-3-yl)methoxy)-4-((3′-(((E)-4-((R)-3-hydroxypyrrolidin-1-yl)but-2-en-1-yl)oxy)-2-methyl-[1,1′-biphenyl]-3-yl)methoxy)benzyl)piperidine-2-carboxylic Acid]
3 | 0.21 to 10 | – | Cc1c(COc2cc(OCc3cncc(C#N)c3)c(C=O)cc2Cl)cccc1-c1cccc(OCCCN2CCC(O)(C(=O)O)CC2)c1C [Example 2385, 1-(3-((3′-((2-chloro-5-((5-cyanopyridin-3-yl)methoxy)-4-formylphenoxy)methyl)-2,2′-dimethyl-[1,1′-biphenyl]-3-yl)oxy)propyl)-4-hydroxypiperidine-4-carboxylic Acid]
4 | 0.21 to 10 | – | Cc1c(COc2cc(OCc3cncc(C#N)c3)c(CN3CCCC[C@H]3C(=O)O)cc2Cl)cccc1-c1cccc(OCCCN2CC[C@@H](O)C2)c1Cl [Example 1510, (S)-1-(5-chloro-4-((2′-chloro-3′-(3-((R)-3-hydroxypyrrolidin-1-yl)propoxy)-2-methyl-[1,1′-biphenyl]-3-yl)methoxy)-2-((5-cyanopyridin-3-yl)methoxy)benzyl)piperidine-2-carboxylic acid]
5 | 0.21 to 10 | – | Cc1c(COc2cc(OCc3cncc(C#N)c3)c(CN(C)[C@@](C)(CO)C(=O)O)cc2Cl)cccc1-c1cccc(OCCCN2CC[C@@H](O)C2)c1C [Example 4108, (S)-2-((5-chloro-2-((5-cyanopyridin-3-yl)methoxy)-4-((3′-(3-((R)-3-hydroxypyrrolidin-1-yl)propoxy)-2,2′-dimethyl-[1,1′-biphenyl]-3-yl)methoxy)benzyl)(methyl)amino)-3-hydroxy-2-methylpropanoic Acid]
6 | 0.21 to 10 | – | C=CC[C@H](NCc1cc(Cl)c(OCc2cccc(-c3cccc(OCCCN4CC[C@@H](O)C4)c3C)c2C)cc1OCc1cncc(C#N)c1)C(=O)O [Example 4155, (S)-2-((5-chloro-2-((5-cyanopyridin-3-yl)methoxy)-4-((3′-(3-((R)-3-hydroxypyrrolidin-1-yl)propoxy)-2,2′-dimethyl-[1,1′-biphenyl]-3-yl)methoxy)benzyl)amino)pent-4-enoic Acid]
7 | 0.21 to 10 | – | Cc1c(COc2cc(OCc3cncc(C#N)c3)c(CN3CCCC[C@H]3C(=O)O)cc2Cl)cccc1-c1cccc(OCCCNC23CC4CC(CC(C4)C2)C3)c1C [Example 2227, (S)-1-(4-((3′-(3-((3s,5s,7s)-adamantan-1-ylamino)propoxy)-2,2′-dimethyl-[1,1′-biphenyl]-3-yl)methoxy)-5-chloro-2-((5-cyanopyridin-3-yl)methoxy)benzyl)piperidine-2-carboxylic Acid]
8 | 0.21 to 10 | – | Cc1c(COc2cc(OCc3cncc(S(C)(=O)=O)c3)c(CN3CCCC[C@H]3C(=O)O)cc2Cl)cccc1-c1cccc(OCCCN2CC[C@@H](C(=O)O)C2)c1C [Example 1084, (S)-1-(4-((3′-(3-((R)-3-carboxypyrrolidin-1-yl)propoxy)-2,2′-dimethyl-[1,1′-biphenyl]-3-yl)methoxy)-5-chloro-2-((5-(methylsulfonyl)pyridin-3-yl)methoxy)benzyl)piperidine-2-carboxylic Acid]

Further lines, the compound ahead of its results:

Row | Compound | IC50 (value given as range class) [nM] | IC50 (numeric IC50) [nM]
9 | CCN(Cc1cc(Cl)c(OCc2cccc(-c3cccc(OCCCN4CC[C@@H](O)C4)c3Cl)c2C)cc1OCc1cncc(C#N)c1)C(CO)CO [Example 2111, (R)-5-((4-chloro-5-((2′-chloro-3′-(3-(3-hydroxypyrrolidin-1-yl)propoxy)-2-methyl-[1,1′-biphenyl]-3-yl)methoxy)-2-(((1,3-dihydroxypropan-2-yl)(ethyl)amino)methyl)phenoxy)methyl)nicotinonitrile] | 0.21 to 10 | –
10 | CC(=O)NCCNCc1cc(Cl)c(OCc2cccc(-c3cccc(OCCCN4CC[C@@H](O)C4)c3)c2C)cc1OCc1cncc(C#N)c1 [Example 1015, (R)—N-(2-((5-chloro-2-((5-cyanopyridin-3-yl)methoxy)-4-((3′-(3-(3-hydroxypyrrolidin-1-yl)propoxy)-2-methyl-[1,1′-biphenyl]-3-yl)methoxy)benzyl)amino)ethyl)acetamide] | 0.21 to 10 | –
11 | Cc1c(COc2cc(OCc3cncc(C#N)c3)c(C(C)NC(CO)CO)cc2Cl)cccc1-c1cccc(OCCCN2CC[C@@H](O)C2)c1C (stereo partly drawn) [Example 4137, 5-((4-chloro-2-(1-((1,3-dihydroxypropan-2-yl)amino)ethyl)-5-((3′-(3-((R)-3-hydroxypyrrolidin-1-yl)propoxy)-2,2′-dimethyl-[1,1′-biphenyl]-3-yl)methoxy)phenoxy)methyl)nicotinonitrile] | – | 3
12 | CC(CO)(CO)NCc1cc(Cl)c(OCc2cccc(-c3cccc(OCCCN4CC[C@@H](O)C4)c3Cl)c2Cl)cc1OCc1cccc(Cl)c1 [Example 2066, (R)-2-((5-chloro-2-((3-chlorobenzyl)oxy)-4-((2,2′-dichloro-3′-(3-(3-hydroxypyrrolidin-1-yl)propoxy)-[1,1′-biphenyl]-3-yl)methoxy)benzyl)amino)-2-methylpropane-1,3-diol] | 0.21 to 10 | –
13 | Cc1c(COCCN2CC[C@@H](O)C2)cccc1-c1cccc(COc2cc(OCc3cncc(C#N)c3)c(CN(C)[C@@H](CO)C(=O)O)cc2Cl)c1C [Example 4130, N-(5-chloro-2-((5-cyanopyridin-3-yl)methoxy)-4-((3′-((2-((R)-3-hydroxypyrrolidin-1-yl)ethoxy)methyl)-2,2′-dimethyl-[1,1′-biphenyl]-3-yl)methoxy)benzyl)-N-methyl-L-serine] | 0.21 to 10 | –
14 | Cc1c(COc2cc(OCc3cncc(S(C)(=O)=O)c3)c(CN[C@](C)(CO)C(=O)O)cc2Cl)cccc1-c1cccc(OCCCN2CCC(CO)(C(=O)O)C2)c1C (stereo partly drawn) [Example 1048, 1-(3-((3′-((4-((((R)-2-carboxy-1-hydroxypropan-2-yl)amino)methyl)-2-chloro-5-((5-(methylsulfonyl)pyridin-3-yl)methoxy)phenoxy)methyl)-2,2′-dimethyl-[1,1′-biphenyl]-3-yl)oxy)propyl)-3-(hydroxymethyl)pyrrolidine-3-carboxylic Acid] | 0.21 to 10 | –
15 | Cc1c(OCCCN2CC[C@@H](O)C2)cccc1-c1cccc(COc2cc(OCc3cncc(C#N)c3)c(CN[C@](C)(CO)C(=O)O)cc2Cl)c1Cl [Example 3017, (R)-2-((5-chloro-4-((2-chloro-3′-(3-((R)-3-hydroxypyrrolidin-1-yl)propoxy)-2′-methyl-[1,1′-biphenyl]-3-yl)methoxy)-2-((5-cyanopyridin-3-yl)methoxy)benzyl)amino)-3-hydroxy-2-methylpropanoic Acid] | 0.21 to 10 | –
16 | Cc1c(COc2cc(OCc3cncc(C#N)c3)c(CN[C@](C)(CO)C(=O)O)cc2Cl)cccc1-c1cccc(OCCCN2CCC(O)C2)c1C#N (stereo in doubt) [Example 3010, (R)-2-((5-chloro-4-((2′-cyano-3′-(3-((R)-3-hydroxypyrrolidin-1-yl)propoxy)-2-methyl-[1,1′-biphenyl]-3-yl)methoxy)-2-((5-cyanopyridin-3-yl)methoxy)benzyl)amino)-3-hydroxy-2-methylpropanoic Acid] | 0.21 to 10 | –
17 | Cc1c(COc2cc(OCc3cc(Cl)cc(Cl)c3)c(CNC(CO)(CO)CO)cc2Cl)cccc1-c1cccc(OCCCN2CC[C@@H](O)C2)c1C [Example 4502, (R)-2-((5-chloro-2-((3,5-dichlorobenzyl)oxy)-4-((3′-(3-(3-hydroxypyrrolidin-1-yl)propoxy)-2,2′-dimethyl-[1,1′-biphenyl]-3-yl)methoxy)benzyl)amino)-2-(hydroxymethyl)propane-1,3-diol] | 0.21 to 10 | –
18 | Cc1c(COc2cc(OCc3cncc(C#N)c3)c(CNC(CO)CO)cc2Cl)cccc1-c1cccc(C(=O)N(C)C)c1C [Example 4034, 3′-((2-chloro-5-((5-cyanopyridin-3-yl)methoxy)-4-(((1,3-dihydroxypropan-2-yl)amino)methyl)phenoxy)methyl)-N,N,2,2′-tetramethyl-[1,1′-biphenyl]-3-carboxamide] | 10 to 100 | –
19 | Cc1c(COc2cc(OCc3cncc(C#N)c3)c(CN[C@](C)(CO)C(=O)O)cc2Cl)cccc1-c1cccc(OCCCN2CCC(O)(C(=O)O)CC2)c1Cl [Example 1099, (R)-1-(3-((3′-((4-(((2-carboxy-1-hydroxypropan-2-yl)amino)methyl)-2-chloro-5-((5-cyanopyridin-3-yl)methoxy)phenoxy)methyl)-2-chloro-2′-methyl-[1,1′-biphenyl]-3-yl)oxy)propyl)-4-hydroxypiperidine-4-carboxylic Acid] | 0.21 to 10 | –
20 | Cc1c(COc2cc(OCc3cncc(C#N)c3)c(CNC(C)(CO)CO)cc2Cl)cccc1-c1cccc(OCC(O)CN2CC[C@@H](O)C2)c1Cl (stereo partly drawn) [Example 2086, 5-((4-chloro-5-((2′-chloro-3′-(2-hydroxy-3-((R)-3-hydroxypyrrolidin-1-yl)propoxy)-2-methyl-[1,1′-biphenyl]-3-yl)methoxy)-2-(((1,3-dihydroxy-2-methylpropan-2-yl)amino)methyl)phenoxy)methyl)nicotinonitrile] | 0.21 to 10 | –
21 | Cc1c(COc2cc(OCc3cncc(C#N)c3)c(CNC(CO)CO)cc2Cl)cccc1-c1cccc(C(=O)NCCN2CCS(=O)(=O)CC2)c1C [Example 4005, 3′-((2-chloro-5-((5-cyanopyridin-3-yl)methoxy)-4-(((1,3-dihydroxypropan-2-yl)amino)methyl)phenoxy)methyl)-N-(2-(1,1-dioxidothiomorpholino)ethyl)-2,2′-dimethyl-[1,1′-biphenyl]-3-carboxamide] | 0.21 to 10 | –
